Measurements reported in patent publication US8283349B2, “Fungicide N-(3-phenylpropyl) carboxamide derivatives” (Bayer Cropscience AG, priority 2007, dated 2012).

System: Mycosphaerella graminicola
Assay: Cell test on Mycosphaerella graminicola
Type: cell-based
Settings: under similar conditions (6 ppm, liquid medium, OD 620 nm); comparison compounds of the prior art
Description: The growth of Mycosphaerella graminicola is performed in a bactopeptone based liquid medium at 20° C. under shaking (120 rpm) during 72 hours. The bactopeptone based medium is prepared by mixing 14.6 grams of D-glucose, 1.4 grams of Yeast extract and 7.1 g of bacteriological peptone (OXOID ref. LP0037) in 1 liter of demineralized water. The medium is sterilized by autoclave 15 minutes at 121° C. After 72 hours, pre-culture of Mycosphaerella graminicola is recovered and the optic density (OD) at 620 nm is adjusted with the bactopeptone based medium at 0.5. The compounds are dissolved in DMSO and added to sterile liquid bactopeptone medium at a concentration of 6 ppm. The medium is inoculated with the pre-culture of Mycosphaerella graminicola by a dilution of 10 times of the pre-culture. The efficacy of the compounds is assessed by OD measurement at 620 nm after 4 days at 20° C. in comparison with a control.

SMILES	activity
COc1ccnc(C(=O)NCCC(c2ccccc2)c2ccccc2)c1O [compound 16, N-(3,3-diphenylpropyl)-3-hydroxy-4-methoxypyridine-2-carboxamide]	did not show any activity
COc1ccc(CCCNC(=O)c2c(-c3ccc(Cl)cc3)noc2C)cc1OC [compound 60, 3-(4-chlorophenyl)-N-[3-(3,4-dimethoxyphenyl)propyl]-5-methylisoxazole-4-carboxamide]	did not show any activity
